Data taken from US9040518B2, “Chemical compounds” (GlaxoSmithKline LLC, priority 2010, dated 2015).
Counter-ions that a name gives are not always drawn.

Molecular target: ileal bile acid cotransporter (iBAT) (Homo sapiens (Human), UniProt Q12908)
Experiment: Human iBAT inhibition: [3H]-taurocholate uptake into HEK293 cells expressing human iBAT
Assay type: cell-based
Settings: HEK293 cells transduced with human iBAT Bacmam virus, 90 minutes at ambient temperature, mean of at least 2 datapoints
Description: Method for Determination of Human iBAT Inhibition:
In preparation for measurement of bile acid uptake into cells expressing the ileal bile acid cotransporter (iBAT), HEK293 cells were cultured in DMEM/F12 supplemented with 10% FBS. Twenty four hours prior to running an experiment, cells were harvested when at a confluence of 80-90%. Cells were seeded in poly-d-lysine coated plates at 50,000 cells per well, and human iBAT Bacmam virus was added such that each well contains 3.67×10e6 pfu (73.4pfu/cell). Each assay plate was covered with Breathe Easy Seal and placed in an incubator for 24 hours to allow expression of the transporter.
On the day of the uptake experiment, 10 mM HEPES was added to Hank's Balanced Salt Solution, and the pH was adjusted to 7.4 with TRIS (HBSSH). The assay buffer was prepared by adding […] [^3H]-taurocholate and 10 μM cold taurocholate to room temperature HBSSH. A separate washing buffer was prepared by adding 10 μM cold taurocholate to HBSSH (˜30 ml per assay plate) and placed on ice. Using 100% DMSO, 8 point, 3-fold dilution curves for each test compound was prepared starting at 200 μM. Similarly, an 8 point dose response curve was prepared of the control compound [(3R,5R)-3-butyl-3-ethyl-7,8-bis(methyloxy)-5-phenyl-2,3,4,5-tetrahydro-1,4-benzothiazepine 1,1-dioxide (Brieaddy, L. E. WO9605188, 1996)] starting at 1.8 mM. Drug plates were created by adding 3 μL of each concentration to a v-bottom 96-well plate then diluted 60-fold with 177 μL of assay buffer. Plates were removed from the incubator and allowed to cool to ambient temperature. Media was aspirated, and wells were washed once with 300 μL HBSSH. 50 μL of each dose response curve concentration was added in triplicate by column to the assay plates, reserving column 10 for control (assay buffer+1.67% DMSO) and columns 11 and 12 for the control compound. Plates were incubated at ambient temperature for 90 minutes then the plates were aspirated then washed 1× with 300 μL of wash buffer. 220 μL of Microscint 20 was added to each well, and the plates were sealed. The amount of [^3H]-taurocholate in cell lysate was quantitated using a microplate scintillation counter on the following day.
IC50's can be generated using the formula, y=(Vmax*x^n)/(K^n+x^n).

Chain of ileal bile acid cotransporter (iBAT) (Q12908 whole entry): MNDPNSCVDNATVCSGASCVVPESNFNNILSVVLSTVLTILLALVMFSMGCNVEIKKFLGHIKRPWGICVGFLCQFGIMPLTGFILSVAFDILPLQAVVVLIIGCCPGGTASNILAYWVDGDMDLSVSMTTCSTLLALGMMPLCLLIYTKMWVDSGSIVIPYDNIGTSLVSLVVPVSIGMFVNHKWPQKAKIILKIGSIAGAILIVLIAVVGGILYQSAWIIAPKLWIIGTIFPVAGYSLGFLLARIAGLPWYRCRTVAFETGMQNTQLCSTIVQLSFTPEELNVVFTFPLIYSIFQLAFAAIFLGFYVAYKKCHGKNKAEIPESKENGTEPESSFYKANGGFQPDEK

Compound `CCCC[C@]1(CC)CS(=O)(=O)c2cc(C(=O)NCC(C)(C)C(=O)O)c(OC)cc2[C@@H](c2ccccc2)N1` [Example 1, 3-({[(3R,5R)-3-butyl-3-ethyl-7-(methyloxy)-1,1-dioxido-5-phenyl-2,3,4,5-tetrahydro-1,4-benzothiazepin-8-yl]carbonyl}amino)-2,2-dimethylpropanoic acid] has an IC50 of 32 nM.

`CCCC[C@]1(CC)CS(=O)(=O)c2cc(CNC(=O)CCS(=O)(=O)O)c(OC)cc2[C@@H](c2ccccc2)N1` [Example 42, 3-({[(3R,5R)-3-butyl-3-ethyl-7-(methyloxy)-1,1-dioxido-5-phenyl-2,3,4,5-tetrahydro-1,4-benzothiazepin-8-yl]methyl}amino)-3-oxo-1-propanesulfonic] was tested, and the IC50 was 128 nM.

For `CCCC[C@]1(CC)CS(=O)(=O)c2cc(CN(CC(=O)O)CC(=O)O)c(OC)cc2[C@@H](c2ccccc2)N1` [Example 7, 2,2′-({[(3R,5R)-3-butyl-3-ethyl-7-(methyloxy)-1,1-dioxido-5-phenyl-2,3,4,5-tetrahydro-1,4-benzothiazepin-8-yl]methyl}imino)diacetic acid hydrochloride salt], the IC50 was 145 nM.

Work on `CCCCC1(CCCC)CS(=O)(=O)c2cc(CP(=O)(O)O)c(OC)cc2C(c2ccccc2)N1` (centres unmarked) [Example 67, {[3,3-dibutyl-7-(methyloxy)-1,1-dioxido-5-phenyl-2,3,4,5-tetrahydro-1,4-benzothiazepin-8-yl]methyl}phosphonic acid trifluoroacetate salt] yielded an IC50 of 52 nM.

`CCCC[C@]1(CC)CS(=O)(=O)c2cc(/C=C/P(=O)(O)O)c(OC)cc2[C@@H](c2ccccc2)N1` [Example 55, {(E)-2-[(3R,5R)-3-butyl-3-ethyl-7-(methyloxy)-1,1-dioxido-5-phenyl-2,3,4,5-tetrahydro-1,4-benzothiazepin-8-yl]ethenyl}phosphonic acid bis-ammonium salt] showed an IC50 of 131 nM.

`CCCC[C@]1(CC)CS(=O)(=O)c2cc(CNC(CC(=O)O)CC(=O)O)c(OC)cc2[C@@H](c2ccccc2)N1` [Example 26, 3-({[(3R,5R)-3-butyl-3-ethyl-7-(methyloxy)-1,1-dioxido-5-phenyl-2,3,4,5-tetrahydro-1,4-benzothiazepin-8-yl]methyl}amino)pentanedioic acid] gave an IC50 of 43 nM.

`CCCC[C@]1(CC)CS(=O)(=O)c2cc(CCC(=O)NS(C)(=O)=O)c(OC)cc2[C@@H](c2ccccc2)N1` [Example 11, 3-[(3R,5R)-3-butyl-3-ethyl-7-(methyloxy)-1,1-dioxido-5-phenyl-2,3,4,5-tetrahydro-1,4-benzothiazepin-8-yl]-N-(methylsulfonyl)propanamide] showed an IC50 of 20 nM.

With `CCCC[C@]1(CC)CS(=O)(=O)c2cc(CCC(=O)N(CC(=O)O)CC(=O)O)c(OC)cc2[C@@H](c2ccccc2)N1` [Example 18, 2,2′-({3-[(3R,5R)-3-butyl-3-ethyl-7-(methyloxy)-1,1-dioxido-5-phenyl-2,3,4,5-tetrahydro-1,4-benzothiazepin-8-yl]propanoyl}imino)diacetic acid] the IC50 was 728 nM.

With `CCCC[C@]1(CC)CS(=O)(=O)c2cc(CNC(=O)CNC(CC(=O)O)CC(=O)O)c(OC)cc2[C@@H](c2ccccc2)N1` [Example 41, 3-{[2-({[(3R,5R)-3-butyl-3-ethyl-7-(methyloxy)-1,1-dioxido-5-phenyl-2,3,4,5-tetrahydro-1,4-benzothiazepin-8-yl]methyl}amino)-2-oxoethyl]amino}pentanedioic acid trifluoroacetate salt] the IC50 was 3330 nM.

For `CCCCC1(CCCC)CS(=O)(=O)c2cc(CNCC(=O)O)c(OC)cc2C(c2ccccc2)N1` (centres unmarked) [Example 66, N-{[3,3-dibutyl-7-(methyloxy)-1,1-dioxido-5-phenyl-2,3,4,5-tetrahydro-1,4-benzothiazepin-8-yl]methyl}glycine trifluoroacetate salt], the IC50 was 21 nM.

Compound `CCCC[C@]1(CC)CS(=O)(=O)c2cc(C(CC(=O)O)CC(=O)O)c(OC)cc2[C@@H](c2ccccc2)N1` [Example 72, 3-[(3R,5R)-3-butyl-3-ethyl-7-(methyloxy)-1,1-dioxido-5-phenyl-2,3,4,5-tetrahydro-1,4-benzothiazepin-8-yl]pentanedioic acid] has an IC50 of over 3000 nM.

Compound `CCCC[C@]1(CC)CS(=O)(=O)c2cc(CNCC(=O)O)c(OC)cc2[C@@H](c2ccccc2)N1O` [Example 46, N-{[(3R,5R)-3-butyl-3-ethyl-4-hydroxy-7-(methyloxy)-1,1-dioxido-5-phenyl-2,3,4,5-tetrahydro-1,4-benzothiazepin-8-yl]methyl}glycine] has an IC50 of 2 nM.

In the case of `CCCC[C@]1(CC)CS(=O)(=O)c2cc(CNC(C)(C)C(=O)O)c(OC)cc2[C@@H](c2ccccc2)N1` [Example 32, N-{[(3R,5R)-3-butyl-3-ethyl-7-(methyloxy)-1,1-dioxido-5-phenyl-2,3,4,5-tetrahydro-1,4-benzothiazepin-8-yl]methyl}-2-methylalanine trifluoroacetate salt], the IC50 is reported as 190 nM.

`CCCC[C@]1(CC)CS(=O)(=O)c2cc(CCC(=O)NCC(=O)O)c(OC)cc2[C@@H](c2ccccc2)N1` [Example 14, N-{3-[(3R,5R)-3-butyl-3-ethyl-7-(methyloxy)-1,1-dioxido-5-phenyl-2,3,4,5-tetrahydro-1,4-benzothiazepin-8-yl]propanoyl}glycine] gave an IC50 of 276 nM.

In the case of `CCCC[C@]1(CC)CS(=O)(=O)c2cc(CCP(=O)(O)O)c(OC)cc2[C@@H](c2ccccc2)N1` [Example 51, {2-[(3R,5R)-3-butyl-3-ethyl-7-(methyloxy)-1,1-dioxido-5-phenyl-2,3,4,5-tetrahydro-1,4-benzothiazepin-8-yl]ethyl}phosphonic acid bis-ammonium salt], the IC50 is reported as 51 nM.

`CCCC[C@]1(CC)CS(=O)(=O)c2cc(CCCNCCS(=O)(=O)O)c(OC)cc2[C@@H](c2ccccc2)N1` [Example 22, 2-({3-[(3R,5R)-3-butyl-3-ethyl-7-(methyloxy)-1,1-dioxido-5-phenyl-2,3,4,5-tetrahydro-1,4-benzothiazepin-8-yl]propyl}amino)ethanesulfonic acid] was tested, and the IC50 was 2440 nM.

For `CCCC[C@]1(CC)CS(=O)(=O)c2cc(C(=O)N(CC(=O)O)CC(=O)O)c(OC)cc2[C@@H](c2ccccc2)N1` [Example 4, 2,2′-({[(3R,5R)-3-butyl-3-ethyl-7-(methyloxy)-1,1-dioxido-5-phenyl-2,3,4,5-tetrahydro-1,4-benzothiazepin-8-yl]carbonyl}imino)diacetic acid hydrochloride], the IC50 was 2540 nM.

`CCCC[C@]1(CC)CS(=O)(=O)c2cc(CNCCP(=O)(O)O)c(OC)cc2[C@@H](c2ccccc2)N1` [Example 33, [2-({[(3R,5R)-3-butyl-3-ethyl-7-(methyloxy)-1,1-dioxido-5-phenyl-2,3,4,5-tetrahydro-1,4-benzothiazepin-8-yl]methyl}amino)ethyl]phosphonic acid trifluoroacetate salt] was tested, and the IC50 was 2700 nM.

With `CCCC[C@]1(CC)CS(=O)(=O)c2cc(CN[C@@H](CO)C(=O)O)c(OC)cc2[C@@H](c2ccccc2)N1` [Example 52, N-{[(3R,5R)-3-butyl-3-ethyl-7-(methyloxy)-1,1-dioxido-5-phenyl-2,3,4,5-tetrahydro-1,4-benzothiazepin-8-yl]methyl}-L-serine bis-ammonium salt] the IC50 was 59 nM.

Compound `CCCC[C@]1(CC)CS(=O)(=O)c2cc(CP(=O)(O)O)c(OC)cc2[C@@H](c2ccccc2)N1` [Example 6, {[(3R,5R)-3-butyl-3-ethyl-7-(methyloxy)-1,1-dioxido-5-phenyl-2,3,4,5-tetrahydro-1,4-benzothiazepin-8-yl]methyl}phosphonic acid hydrochloride salt] has an IC50 of 23 nM.
